From US11623009B2, “Bone fracture repair by targeting of agents that promote bone healing” (Purdue Research Foundation, priority 2015, dated 2023)

Columns and labels:
solubility in water = type: physicochemical; settings: 6BIO by itself
Excerpt: The drug being attached to the unimers was a GSK3β inhibitor, 6BIO. […] By including 6BIO in the unimer design, the unimer solubilized the drug while the drug stabilized the micelle. The oxime of 6BIO was first conjugated to the carboxylic group of a 4-pentynoic acid derivative and then clicked to the azide-containing unimer by the alkyne on the 4-pentynoic acid derivative. Upon completion of the click reaction, the micelle was purified, dried, and formed micelles upon reconstitution in PBS.

[1] = 24 h organ biodistribution of radio-iodinated micelles and 6BIO in mice with femoral fracture; type: in vivo, CD4 Swiss mice
Protocol: Radio-iodination of micelles and 6BIO. The stannylated unimers and stannylated 6BIO (0.3-0.5 μmol) were dissolved in 100 μL DMF. The solutions were transferred to Wheaton V-vials containing a solution of [^125I]NaI (5.0 mCi) in 100 μL DMF phosphate-buffered saline (PBS) (pH 7.4). Chloramine-T was added, and the reaction mixture stirred for 15 min at ambient temperature. Purification of the iodinated micelles was performed using a LH20 column eluted with MeOH. Iodinated 6BIO was dissolved in EtOAc and was washed twice with water. The solvent of all three reactions was evaporated using a stream of nitrogen, and the residue was dissolved with PBS (pH 7.4) to obtain solutions with an activity concentration of 370 kBq/100 μL. The overall radiochemical yield was ca. 10%.
Murine fracture induction. […] The skin incision was made medial parapetellar.
Injection and dissection techniques/counting for 24 h biodistribution. From the iodinated products described previously 1 uCi/mL solutions were made in sterile PBS. […] Two weeks following fracture induction, each mouse received a 0.1 μCi (0.1 mL) dose of the radio-iodinated linear micelles, branched micelle, or free drug. Animals were then placed back in their cages for 24 h. At 24 h they were sacrificed using CO2 excess. Blood was drawn from a cardiopuncture and all other organs measured were removed (lungs, liver, spleen, kidneys, fractured femur, healthy femur). The activity was counted using Packard Cobra Auto-Gamma and was normalized by dividing the count rate by the weights of each organ.
Biodistribution: Organ biodistribution at 24 h. […] Although a cleavable linker is necessary for therapy studies, it may pose a problem with biodistribution studies. At 24 h of an in vivo study, 30% of the drug may be released. In a biodistribution study, premature release would not give accurate information on how well the targeting ligand is able to remain in the fracture site. A non-degradable oxime ether linker replaced the oxime-ester linker in the micelles for biodistribution. […]

[2] = system: stabilized femoral fracture; experiment: fracture healing efficacy, μCT analysis of fracture callus; type: in vivo, male CD4 Swiss Webster mice; settings: 6.9 nmol/kg/dose i.v. every 3 days, 3 weeks after fracture, mean±SEM
Protocol: Mouse handling. All animal experiments were performed in accordance to Purdue University's IACUC approved protocols. Forty mice (10 per group) 31-35 g male CD4 Swiss Webster mice were purchased from Harlan laboratories. Mice were able to move freely throughout the experiment. At 3 weeks following fracture induction, mice were euthanized using a CO2 overdose. […] Mouse bone fracture. […] The skin incision was made over the knee. The patella was then dislocated and a small hole was made under the patella with a 25 guage needle. The needle was used to ream the intramedullary canal. A 22 guage locking nail was produced by flattening both ends was then inserted. The incision site was sutured and the femur was then fractured using a three-point bending device. […] Mouse dosing. Mice were dosed intravenously by tail vein injection every 3 days starting on the day of fracture induction. […] Mice receiving drug dosages were administered drugs at the follow dose 6.9 nmol/kg/dose in approximately 0.1 mL of PBS. PBS control mice received 0.1 mL of PBS. μCT analysis. […] The bones were scanned while immersed in PBS to prevent dehydration. Scanco μCT software was used to analyze the images for bone density, total volume (TV), relative bone volume (BV/TV), trabecular thickness (Tb.Th), and trabecular spacing (Tb.Sp). Volumes of interest included the fracture callus, and both cortical and trabecular bone between the points on the cortical bone where the bone was fractured. Statistical analysis. Statistical analyses were calculated using Prism GraphPad software. Data is presented in results as mean±standard error of the mean (SEM).

[3] = mouse, in vivo
Protocol: CD4 Swiss mice (30-35 g) acquired from Harlan laboratories were used for these experiments.
The study was performed on 3 groups of mice with 5 mice per group. Two weeks following fracture induction each mouse received 0.1 mCi (0.1 mL) of dose. Animals were then returned to their cages until euthanasia by CO2 overdose at the desired time point (1 h, 4 h, 24 h). Animals were imaged using MiLabs U-SPECT-II/CT. 3D reconstructions were performed using Image J software.
SPECT/CT biodistribution.

[4] = 24 h after injection, two weeks after fracture, 125I-labelled, non-degradable oxime ether linker

Structure (SMILES): O=C1Nc2ccccc2C1=C1Nc2cc(Br)ccc2C1=NO [6BIO, 6′-bromoindirubin-3′-oxime]
- solubility in water (solubility in water): not soluble in water
- accumulation in the lungs, liver, and spleen ([1]; 24 h): high accumulation
- accumulation in fractured femurs [1, 4]: 0.4±0.05% of injected dose/gram
- accumulation in healthy femurs [1, 4]: 0.5±0.10% of injected dose/gram
- Tb. Sp (trabecular spacing) [2]: 0.191 ± 0.009 mm
- bone density of fracture callus [2]: 337.8±14.2 mg HAp/cm^3
- BV/TV (relative bone volume) ([2]; listed as Free 6BIO): 0.338 ± 0.015
- TV (callus total volume) ([2]; listed as Free 6BIO): 48.2 ± 5.8 mm^3
- Tb. Th (trabecular thickness) ([2]; listed as Free 6BIO): 0.134 ± 0.007 mm
- BV/TV (relative bone volume) ([2]; listed as free 6BIO): 0.338±0.015
- TV (callus total volume) ([2]; listed as free 6BIO): 48.2±5.8 mm^3
- Tb. Th (trabecular thickness) ([2]; listed as free 6BIO): 0.134±0.007 mm
- SPECT/CT distribution at 1 h [3]: primarily found in the stool
- SPECT/CT distribution at 4 h [3]: primarily contained in the bowel
- SPECT/CT distribution at 24 h [3]: appears to be cleared
